Reference: patent US20250236613A1, “SARM1 MODULATORS, PREPARATIONS, AND USES THEREOF” (SIRONAX LTD., priority 2021, published 2025)

target: SARM1 (50-724) (Homo sapiens (Human), UniProt Q6SZW1); assay: SARM1 (50-724) enzymatic assay; type: biochemical; conditions: SARM1 inhibitory activity; 2 nM SARM1 (50-724), 200 μM NMN activator, 100 μM NAD+ substrate, 1 h, LC-MS/MS
Procedure: The enzymatic assay was performed in a 384-well plate using Dulbecco's PBS buffer as the reaction buffer. Purified SARM1 (50-724) with a final concentration of 2 nM was pre-incubated with the test compound at 1% DMSO final assay concentration for 15 min at room temperature. The reaction was initiated by adding the mixture of 200 μM NMN as activator and 100 μM NAD^+ as substrate. After 1 h of incubation at room temperature, the reaction was terminated with 10 times volume of 70% acetonitrile, then centrifuged at 3800 rpm for 10 min. The samples were analyzed using LC-MS/MS after diluted to the proper concentration by 10 mM ammonium acetate (pH 9.75).

Sequence of SARM1 (50-724) (Q6SZW1 50-724): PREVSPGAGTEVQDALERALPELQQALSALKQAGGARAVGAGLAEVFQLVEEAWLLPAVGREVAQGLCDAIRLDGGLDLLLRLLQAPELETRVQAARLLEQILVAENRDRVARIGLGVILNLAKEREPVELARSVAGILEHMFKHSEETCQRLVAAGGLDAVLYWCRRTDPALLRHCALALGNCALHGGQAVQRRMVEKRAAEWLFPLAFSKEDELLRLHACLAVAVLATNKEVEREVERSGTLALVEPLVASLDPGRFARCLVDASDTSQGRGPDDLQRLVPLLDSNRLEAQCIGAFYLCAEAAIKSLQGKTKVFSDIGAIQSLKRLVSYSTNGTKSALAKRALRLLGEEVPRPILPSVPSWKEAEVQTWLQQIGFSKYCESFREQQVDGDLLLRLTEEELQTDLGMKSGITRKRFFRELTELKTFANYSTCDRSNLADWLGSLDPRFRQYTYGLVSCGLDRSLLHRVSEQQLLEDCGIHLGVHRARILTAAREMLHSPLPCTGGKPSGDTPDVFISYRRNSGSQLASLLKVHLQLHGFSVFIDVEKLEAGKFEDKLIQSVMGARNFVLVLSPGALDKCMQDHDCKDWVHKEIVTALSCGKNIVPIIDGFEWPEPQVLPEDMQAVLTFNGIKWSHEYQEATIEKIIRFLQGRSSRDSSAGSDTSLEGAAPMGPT

Compound | IC50 [µM]
Cc1ccncc1-c1ccc2c(c1)NC(=O)CO2 [Compound 51, 6-(4-methylpyridin-3-yl)-2H-benzo[b][1,4]oxazin-3(4H)-one] | < 5
Cc1ccncc1-c1ccc2oc(=O)[nH]c2c1 [Compound 52, 5-(4-methylpyridin-3-yl)benzo[d]oxazol-2(3H)-one] | 5 to 15
Cc1ccncc1-c1ccc2c(c1)OCCN2 [Compound 53, 7-(4-methylpyridin-3-yl)-3,4-dihydro-2H-benzo[b][1,4]oxazine] | > 30
Cc1ccncc1-c1ccc2c(c1)NCCO2 [Compound 54, 6-(4-methylpyridin-3-yl)-3,4-dihydro-2H-benzo[b][1,4]oxazine] | 15 to 30
Cc1ccncc1-c1ccc2c(c1)NC(=O)C2 [Compound 55, 6-(4-methylpyridin-3-yl)indolin-2-one] | 15 to 30
Cc1ccncc1-c1cncc(O)c1 [Compound 56, 4′-methyl-[3,3′-bipyridin]-5-ol] | 5 to 15
Cc1ccncc1-c1ccc2[nH]c(=O)n(C)c2c1 [Compound 57, 1-methyl-6-(4-methylpyridin-3-yl)-1,3-dihydro-2H-benzo[d]imidazol-2-one] | 5 to 15
Cc1ccncc1-c1cc(Cl)c2[nH]ncc2c1 [Compound 58, 7-chloro-5-(4-methylpyridin-3-yl)-1H-indazole] | 5 to 15
Cc1ccncc1-c1ccc2c(c1)COC(=O)N2 [Compound 59, 6-(4-methylpyridin-3-yl)-1,4-dihydro-2H-benzo[d][1,3]oxazin-2-one] | < 5
Cc1ccncc1-c1cc(O)cc(Cl)c1 [Compound 60, 3-chloro-5-(4-methylpyridin-3-yl)phenol] | < 5
Cc1ccncc1-c1cc(F)c(O)c(Cl)c1 [Compound 61, 2-chloro-6-fluoro-4-(4-methylpyridin-3-yl)phenol] | 5 to 15
Cc1ccncc1-c1cccc(C(F)F)c1 [Compound 62, 3-(3-(difluoromethyl)phenyl)-4-methylpyridine] | < 5
Cc1ccncc1-c1cc(O)cc(C(F)(F)F)c1 [Compound 63, 3-(4-methylpyridin-3-yl)-5-(trifluoromethyl)phenol] | < 5
Cc1ccncc1-c1ccc2[nH]c(N)nc2c1 [Compound 64, 5-(4-methylpyridin-3-yl)-1H-benzo[d]imidazol-2-amine] | < 5
Cc1ccncc1-c1ccc2[nH]nc(N)c2c1 [Compound 65, 5-(4-methylpyridin-3-yl)-1H-indazol-3-amine] | > 30
Cc1ccncc1-c1ccc2[nH]nc(F)c2c1 [Compound 68, 3-fluoro-5-(4-methylpyridin-3-yl)-1H-indazole] | < 5
Cc1ccncc1-c1ccc(NC(=N)N)cc1 [Compound 69, 1-(4-(4-methylpyridin-3-yl)phenyl)guanidine] | 15 to 30
Cc1ccncc1-c1ccc2c(c1)N(C)S(=O)(=O)N2 [Compound 70, 1-methyl-6-(4-methylpyridin-3-yl)-1,3-dihydrobenzo[c][1,2,5]thiadiazole 2,2-dioxide] | 15 to 30

Compound | IC50 [µM]
Cc1ccncc1-c1ccc2nc(N)ncc2c1 [Compound 71, 6-(4-methylpyridin-3-yl)quinazolin-2-amine] | 15 to 30
Cc1ccncc1-c1ccc2c(c1)NC(=O)NC2 [Compound 72, 7-(4-methylpyridin-3-yl)-3,4-dihydroquinazolin-2(1H)-one] | 5 to 15
CC(=O)Nc1nc2cc(-c3cnccc3C)ccc2[nH]1 [Compound 73, N-(5-(4-methylpyridin-3-yl)-1H-benzo[d]imidazol-2-yl)acetamide] | < 5
Cc1ccncc1-c1ccc2[nH]ncc2c1F [Compound 74, 4-fluoro-5-(4-methylpyridin-3-yl)-1H-indazole] | 15 to 30
Cc1ccncc1-c1ccc2[nH]c(=S)oc2c1 [Compound 75, 6-(4-methylpyridin-3-yl)benzo[d]oxazole-2(3H)-thione] | < 5
Cc1ccncc1-c1ccc2c(c1)C(=O)C(=O)N2 [Compound 76, 5-(4-methylpyridin-3-yl)indoline-2,3-dione] | < 5
Cc1ccncc1-c1ccc2c(c1)CNC(=N)N2 [Compound 79, 6-(4-methylpyridin-3-yl)-3,4-dihydroquinazolin-2(1H)-imine] | < 5
Cc1ccncc1-c1ccc2c(c1)COCC(=O)N2 [Compound 80, 7-(4-methylpyridin-3-yl)-1,5-dihydrobenzo[e][1,4]oxazepin-2(3H)-one] | < 5
Cc1ccncc1-c1ccc2c(c1)C(F)(F)C(=O)N2 [Compound 81, 3,3-difluoro-5-(4-methylpyridin-3-yl)indolin-2-one] | < 5
Cc1c[nH]c(=O)cc1-c1ccc2[nH]c(=O)oc2c1 [Compound 82, 6-(5-methyl-2-oxo-1,2-dihydropyridin-4-yl)benzo[d]oxazol-2(3H)-one] | 15 to 30
Cc1ccncc1-c1ccc2c(c1)OCCC(=O)N2 [Compound 85, 8-(4-methylpyridin-3-yl)-2,3-dihydrobenzo[b][1,4]oxazepin-4(5H)-one] | 5 to 15
Cc1ccncc1-c1ccc2[nH]c(=O)sc2c1 [Compound 86, 6-(4-methylpyridin-3-yl)benzo[d]thiazol-2(3H)-one] | < 5
Cc1ccncc1-c1ccc2[nH]c(C#N)cc2c1 [Compound 88, 5-(4-methylpyridin-3-yl)-1H-indole-2-carbonitrile] | < 5
Cc1ccncc1-c1ccc2[nH]c(C#N)nc2c1 [Compound 89, 5-(4-methylpyridin-3-yl)-1H-benzo[d]imidazole-2-carbonitrile] | < 5
Cc1ccncc1-c1ccc2[nH]c(=O)oc2c1F [Compound 91, 7-fluoro-6-(4-methylpyridin-3-yl)benzo[d]oxazol-2(3H)-one] | 15 to 30
Cc1ccncc1-c1ccc2[nH]nc(C#N)c2c1 [Compound 92, 5-(4-methylpyridin-3-yl)-1H-indazole 3-carbonitrile] | < 5
Cc1ccncc1-c1ccc2[nH]nc(C(F)(F)F)c2c1 [Compound 93, 5-(4-methylpyridin-3-yl)-3-(trifluoromethyl)-1H-indazole] | 5 to 15
Cc1ccnnc1-c1ccc2[nH]c(=O)oc2c1 [Compound 94, 6-(4-methylpyridazin-3-yl)benzo[d]oxazol-2(3H)-one] | < 5

Now from value to molecule:

IC50 [µM] | Compound
15 to 30 | Cc1cc(Cl)ncc1-c1ccc2[nH]c(=O)oc2c1 [Compound 66, 6-(6-chloro-4-methylpyridin-3-yl)benzo[d]oxazol-2(3H)-one]
15 to 30 | Cc1cc(C)c(-c2ccc3[nH]c(=O)oc3c2)cn1 [Compound 67, 6-(4,6-dimethylpyridin-3-yl)benzo[d]oxazol-2(3H)-one]
5 to 15 | Nc1cncc(-c2ccc3[nH]c(=O)oc3c2)c1 [Compound 77, 6-(5-aminopyridin-3-yl)benzo[d]oxazol-2(3H)-one]
> 30 | Cc1ncncc1-c1ccc2[nH]c(=O)oc2c1 [Compound 78, 6-(4-methylpyrimidin-5-yl)benzo[d]oxazol-2(3H)-one]
< 5 | CCc1ccncc1-c1ccc2[nH]c(=O)oc2c1 [Compound 83, 6-(4-ethylpyridin-3-yl)benzo[d]oxazol-2(3H)-one]
< 5 | O=c1[nH]c2ccc(-c3cccnc3)cc2o1 [Compound 84, 6-(pyridin-3-yl)benzo[d]oxazol-2(3H)-one]
< 5 | O=c1[nH]c2ccc(-c3cncc(Nc4ccccc4)c3)cc2o1 [Compound 87, 6-(5-(phenylamino)pyridin-3-yl)benzo[d]oxazol-2(3H)-one]
< 5 | COc1ccncc1-c1ccc2[nH]c(=O)oc2c1 [Compound 90, 6-(4-methoxypyridin-3-yl)benzo[d]oxazol-2(3H)-one]
< 5 | O=c1[nH]c2ccc(-c3cncc(Nc4cccc(O)c4)c3)cc2o1 [Compound 95, 6-(5-((3-hydroxyphenyl)amino)pyridin-3-yl)benzo[d]oxazol-2(3H)-one]
< 5 | O=c1[nH]c2ccc(-c3cncc(Nc4cccc(Cl)c4)c3)cc2o1 [Compound 96, 6-(5-((3-chlorophenyl)amino)pyridin-3-yl)benzo[d]oxazol-2(3H)-one]
< 5 | COc1cccc(Nc2cncc(-c3ccc4[nH]c(=O)oc4c3)c2)c1 [Compound 97, 6-(5-((3-methoxyphenyl)amino)pyridin-3-yl)benzo[d]oxazol-2(3H)-one]
< 5 | Cc1ccc(Nc2cncc(-c3ccc4[nH]c(=O)oc4c3)c2)cc1 [Compound 98, 6-(5-(p-tolylamino)pyridin-3-yl)benzo[d]oxazol-2(3H)-one]
< 5 | O=c1[nH]c2ccc(-c3cncc(Nc4ccc5c(c4)NCCC5)c3)cc2o1 [Compound 99, 6-(5-((1,2,3,4-tetrahydroquinolin-7-yl)amino)pyridin-3-yl)benzo[d]oxazol-2(3)-one]
< 5 | O=c1[nH]c2ccc(-c3cncc(Nc4ccc(F)cc4)c3)cc2o1 [Compound 100, 6-(5-((4-fluorophenyl)amino)pyridin-3-yl)benzo[d]oxazol-2(3H)-one]
< 5 | O=c1[nH]c2ccc(-c3cncc(Nc4cccc(F)c4)c3)cc2o1 [Compound 101, 6-(5-((3-fluorophenyl)amino)pyridin-3-yl)benzo[d]oxazol-2(3H)-one]
< 5 | O=c1[nH]c2ccc(-c3cncc(Nc4ccccc4F)c3)cc2o1 [Compound 102, 6-(5-((2-fluorophenyl)amino)pyridin-3-yl)benzo[d]oxazol-2(3H)-one]
< 5 | CC(C)c1cccc(Nc2cncc(-c3ccc4[nH]c(=O)oc4c3)c2)c1 [Compound 103, 6-(5-((3-isopropylphenyl)amino)pyridin-3-yl)benzo[d]oxazol-2(3H)-one]
